# From US9265744B2, “Fulvic acid and antibiotic combination for the inhibition or treatment of multi-drug resistant bacteria” (NATRACINE UK LIMITED, priority 2012, dated 2016)
# Tested on: Klebsiella pneumoniae (ATCC BAA2146 NDM-1+)
# Experiment: Neutropenic mouse thigh model of K. pneumoniae infection
# Assay type: in vivo, mouse (CD1)
# Conditions: IV 2X daily; for Group Ave. Log 10 cfu/g / Group Average (cfu/g), thigh tissue burden / Log reduction from vehicle: 24 h post infection; for No. Sterilised (5 or less colonies detected on neat plate): n = 12 thighs
# Description: Mice used in this study were supplied by Charles River UK and were specific pathogen free. The strain of mouse used was CD1, which is a well characterized outbred strain. Mice were 16-18 g on receipt at Euprotec's facility and were allowed to acclimatize for 7 days (target weight at the start of the experiment 22-25 g).
# Klebsiella pneumoniae (ATCC BAA2146 NDM-1^+ (blandm) was used throughout the study.
# In this study, 6 mice were used in each treatment group. • b) Immunosuppression
# Mice were rendered temporarily neutropenic by immunosuppression with cyclophosphamide at 150 mg/kg four days before infection and 100 mg/kg one day before infection by intraperitoneal injection. The immunosuppression regime leads to neutropenia starting 24 hours post administration which continues throughout the study. • c) Infection
# Antibacterial treatment was initiated 2 hours post infection (Table 3) and was administered twice (exactly 12 hours apart). An aliquot of 4% CHD-FA stock solution as adjusted to pH 5 with 10 M sodium hydroxide solution then diluted either 1:2 or 1:8 with 0.9% saline to give a dosing solution of 2% (200 mg/kg) and 0.5% (50 mg/kg) CHD-FA respectively.
# Colistin was diluted in 0.9% saline to give a dosing solution of 4 mg/ml (40 mg/kg). Meropenem was diluted in 0.9% saline to give a dosing solution of 3 mg/ml (30 mg/kg). The vehicle was 0.9% saline. Following reconstitution, the suspensions were vortexed to ensure complete dissolution.
# CHD-FA was administered by gavage, whereas Colistin, Meropenem and the vehicle were administered IV at 10 ml/kg (requiring individual mice to be administered ˜0.25 ml/dose). • e) Endpoints
# 24 hours post infection, the clinical condition of all animals was assessed prior to them being humanely euthanized. Animal weight was determined before both thighs were removed and weighed individually. Individual thigh tissue samples were homogenized in ice cold sterile phosphate buffered saline. Thigh homogenates were then quantitatively cultured on to CLED agar and incubated at 37° C. for 24 hrs and colonies counted daily. • f) Statistical Analysis
# Quantitative thigh tissue burden data for CHD-FA were analysed using the statistical test Kruskal Wallis test (corrected for multiple comparisons) and compared to Colistin, Meropenem and vehicle monotherapy, plus Colistin/CHD-FA and Meropenem/CHD-FA combinations.
Compound,Group Ave. Log 10 cfu/g (Meropenem 30 mg/kg) [Log 10 cfu/g],"Group Average (cfu/g), thigh tissue burden (Meropenem 30 mg/kg) [cfu/g]",Log reduction from vehicle (Meropenem 30 mg/kg) [log 10],No. Sterilised (5 or less colonies detected on neat plate) (Meropenem 30 mg/kg),Group Ave. Log 10 cfu/g (Colistin 40 mg/kg) [Log 10 cfu/g],"Group Average (cfu/g), thigh tissue burden (Colistin 40 mg/kg) [cfu/g]",Log reduction from vehicle (Colistin 40 mg/kg) [log 10],No. Sterilised (5 or less colonies detected on neat plate) (Colistin 40 mg/kg)
C[C@@H](O)[C@H]1C(=O)N2C(C(=O)O)=C(S[C@@H]3CN[C@H](C(=O)N(C)C)C3)[C@H](C)[C@H]12 [Meropenem],9.67,4729505542,1.74,0,,,,
Colistin,,,,,9.14,1388363808,2.27,0
